Results as given in patent US20080241115A1, “Use Of Mesenchymal Stem Cells Genetically Modified To Express A Suicide Gene For Treating A Cancer” (Ajou University Industry-Academic Cooperation Foundation, priority 2005, published 2008).

How the values were obtained:
293T/CD cells = experiment: Suicide effect of CD gene, MTT viability assay and phase contrast microscopy; type: cell-based
Protocol: (§1) Normal 293T cells and 293T/CD cells transformed with pMSCV-puro/CD prepared in Step 1 were plated at a density of 2,000 cells/well in a 24-well plate containing DMEM with 10% fetal bovine serum. After 24 hours, 5-FC was added to the cells at various concentrations (0-10 mM). The media was replaced with fresh medium containing 5-FC every 2 days for 1 week. […] The viability was estimated by measuring mitochondria NADPH activity by 3-(4,5-dimethyl-thiazol-2-yl)-2,5-diphenyltetrazolium bromide (MTT) assay. The cells were incubated in 200 μl of […] MTT (Sigma, U.S.A) in PBS for 4 hours. The solution was replaced with 200 μl of absolute dimethyl sulfoxide (DMSO, Sigma). After incubated at room temperature for 15 minutes, the absorbance at 540 nm was measured with an ELISA reader (Molecular Probe, U.S.A). The data in FIG. 4B are presented as averages ±S.E. with respect to that of the cells grown in the absence of 5-FC from 3 independent experiments.

293T cells = experiment: Suicide effect control, MTT viability assay; type: cell-based; settings: normal 293T cells, 1,000 μM 5-FC
Protocol: as §1

MSC/CD cells = experiment: Suicide effect of CD gene in MSC/CD cells, MTT assay and light microscopy; type: cell-based, human
Protocol: CD-expressing retrovirus was used to deliver the CD gene into MSCs. MSCs obtained in Step 1 of Example 1 were grown in growth medium (DMEM containing 10% FBS, 100 units/ml penicillin and 100 μg/ml streptomycin) at 37° C. and 5% CO2 until 70% confluence. CD-expressing retrovirus prepared in Example 2 was added to the culture with 1:1 dilution in the growth medium in the presence of 8 μg/ml polybrene (Sigma) for 8 hours and in the fresh growth medium for 16 hours. After the retroviral transduction was repeated 2 more times, the cells were split into 1:3 in growth medium containing 4 μg/ml puromycin (Sigma) for 14 days. The survived cells were pooled, and used in the subsequent experiments.
(§2) MSC/CD or MSC cells were plated in growth medium at a density of 5,000 cells/well in a 6-well plate one day before exposure to 5-FC. The medium was replaced every 2 days with fresh growth medium containing 0-10 mM 5-FC for 2 weeks. […] The viability was estimated by measuring mitochondria NADPH activity using MTT assay as mentioned above with 293T/CD cells. The data are presented as averages ±S.E with respect to that of the untreated cells from 3 independent experiments (FIG. 6B).

MSC cells = experiment: Suicide effect control in MSCs, MTT assay; type: cell-based, human; settings: up to 1,000 μM 5-FC, 2 weeks
Protocol: as §2

C6 glioma cells = experiment: Cytotoxic effect of 5-FU on glioma cells, MTT assay; type: cell-based; settings: C6, 5-FU 1 week
Protocol: (§3) To verify that 5-FU produced by MSC/CD is sufficient to induce cell death in various glioma cells, C6 (KCLB No. 10107), U373 (KCLB No. 30017), U87 (KCLB No. 30014) cells were freshly obtained from KCLB (Korean cell line bank) and plated in 96-well plates in growth medium at a density of 100 cells/well, 100 cells/well, and 500 cells/well, respectively. After 24 hours, 5-FU was added to the cells at 0.01-100 μM. After 1 week, cell viability was estimated by MTT assay as described above.

U373 glioma cells = experiment: as above; type: cell-based; settings: U373, 5-FU 1 week
Protocol: as §3

U87 glioma cells = experiment: as above; type: cell-based; settings: U87, 5-FU 1 week
Protocol: as §3

SMILES | viability by phase contrast microscopy (293T/CD cells; 293T/CD cells, 1,000 μM 5-FC) | concentration from which cell death was detected (293T/CD cells; 293T/CD cells, 5-FC for 1 week, MTT) [µM] | IC50 (293T/CD cells; Homo sapiens, HEK-293T, 168 h, 293T/CD cells, 5-FC for 1 week, MTT, read-out: IC50 of cell death) [µM] | cell death (293T cells) | IC50 (MSC/CD cells; Homo sapiens, 336 h, MSC/CD cells, 5-FC for 2 weeks, MTT, read-out: IC50 of cell death) [µM] | cell death by light microscopy (MSC/CD cells; MSC/CD cells, 1,000 μM 5-FC for 2 weeks) | concentration from which cell death was detected (MSC/CD cells; MSC/CD cells, 5-FC for 2 weeks, MTT) [µM] | cell death (MSC cells) | concentration at which cell death reached plateau (C6 glioma cells) [µM] | IC50 (C6 glioma cells; C6 glioma, 168 h, read-out: IC50 of cell death) [µM] | IC50 (U373 glioma cells; Homo sapiens, U373 MG, 168 h, read-out: IC50 of cell death) [µM] | concentration at which cell death reached plateau (U373 glioma cells) [µM] | IC50 (U87 glioma cells; Homo sapiens, U-87 MG, 168 h, read-out: IC50 of cell death) [µM] | concentration at which cell death reached plateau (U87 glioma cells) [µM]
Nc1nc(=O)[nH]cc1F [5-FC, 5-fluorocytosine] | reduced | 10 | 296 | did not show cell death | 332 | almost died | 100 | did not show cell death | – | – | – | – | – | –
O=c1[nH]cc(F)c(=O)[nH]1 [5-FU, 5-fluorouracil] | – | – | – | – | – | – | – | – | 10 | 0.93 | 5.34 | 10 | 5.65 | 10
